US20130183294A1, “METHODS OF USING FGF19 MODULATORS” (GENENTECH, INC., priority 2012, published 2013)

Legend:
Caco-2 monolayers = experiment: Caco-2 permeability and taurocholate transport in transwell system; assay type: cell-based, human; settings: 50 μM, 24 h, p value<0.001
Method: The Caco-2 human adenocarcinoma cell line and Eagle's Minimum Essential Medium (EMEM) were purchased from ATCC (American Type Culture Collection, Rockville, Md.). Caco-2 cells were seeded on transwell inserts (0.4 μm pore size, Corning, N.Y.) at a density of 1.5×10^5 cells/mL and cultured for 23 days with media changes 3 times per week. On day 23, the cells were treated with either isotype control antibody (100 μg/mL), FGF19 (gp120, Genentech Inc., CA) (500 ng/mL), anti-FGF19 (100 μg/mL), DCA (Sigma-Aldrich, St. Louis, Mo.) (50 μM) or DCA (50 μM) plus anti-FGF19 (100 μg/mL) for 24 h prior to the permeability experiments. The monolayers were equilibrated for 30 min in transport buffer (HBSS with 10 mM HEPES, pH 7.4) at 37° C. and the transepithelial electrical resistance [TEER cm2), membrane area 1.12 cm^2] of each well was measured using the volt-ohm meter and STX-2 electrode. The permeabilities of lucifer yellow (LY), and taurocholate were evaluated in the apical to basolateral (A-B) direction. […] The apparent permeability for taurocholate, and LY (Papp) was calculated using the following equation: Papp=dQ/dt×1/C0A where dQ/dt is the rate of compound appearance in the receiver compartment, C0 is the concentration in the donor compartment and A is the surface area of the insert. […]

Caco-2 cells = experiment: Gene expression (qRT-PCR) in intestinal epithelial (Caco-2) cells; assay type: cell-based, human; settings: 50 μM, 24 h

In the case of C[C@H](CCC(=O)O)[C@H]1CC[C@H]2[C@@H]3CC[C@@H]4C[C@H](O)CC[C@]4(C)[C@H]3C[C@H](O)[C@]12C [DCA, deoxycholic acid], the “taurocholate uptake, reduction vs. control” value (Caco-2 monolayers) was −80%, the IBABP expression increase (Caco-2 cells; p value<0.0001) was greater than 30 fold and the Ost-α expression increase (Caco-2 cells; p value<0.0015) was 2 fold. It also gave an Ost-β expression increase (Caco-2 cells; p value<0.05) of 1.3 fold.
